This note sets out measurements from patent US7056903B2, “Carboxylic acid derivatives as IP antagonists” (Syntex (U.S.A.) LLC, priority 2000, dated 2006).

Structures are written as SMILES.

On to `O=C(N[C@H](Cc1ccccc1)C(=O)O)OCc1cc2cc(-c3ccc4[nH]ccc4c3)ccc2o1` [Compound 138, (R)-2-[5-(1H-indol-5-yl)-benzofuran-2-ylmethoxycarbonylamino]-3-phenyl-propionic acid], for which the melting point (as a rule, the temperature, or range, at which the solid turns liquid) is 90 to 95 °C.
Molecule `O=C(N[C@H](Cc1ccccc1)C(=O)O)OCc1ccc2oc(Cc3ccccc3)cc2c1` [Compound 139, (R)-2-(2-benzyl-benzofuran-5-ylmethoxycarbonylamino)-3-phenyl-propionic acid] displayed a melting point of 108.8 to 110.5 °C.
The molecule `O=C(N[C@H](Cc1ccc(F)cc1)C(=O)O)OCc1ccc2oc(-c3ccc(F)cc3)cc2c1` [Compound 140, (R)-3-(4-fluoro-phenyl)-2-[2-(4-fluoro-phenyl)-benzofuran-5-ylmethoxycarbonylamino]-propionic acid] gave a melting point of 201 to 204 °C.
Consider `O=C(NC(Cc1ccc(F)cc1)C(=O)O)OCc1ccc(-c2ccc(O)cc2)cc1` (stereo not shown) [Compound 142, 3-(4-fluoro-phenyl)-2-(4′-hydroxy-biphenyl-4-ylmethoxycarbonylamino)-propionic acid], for which the melting point was in the range of 65 to 74 °C.
Consider `O=C(NC(Cc1ccccc1)C(=O)O)OCCCc1ccc(-c2ccccc2)cc1` (stereo not shown) [Compound 143, 2-(3-biphenyl-4-yl-propoxycarbonylamino)-3-phenyl-propionic acid], for which the melting point fell in the range of 139.1 to 139.9 °C.
`Cn1cc(C[C@@H](NC(=O)OCc2ccc(-c3ccccc3)cc2)C(=O)O)c2ccccc21` [Compound 145, (R)-2-(biphenyl-4-ylmethoxycarbonylamino)-3-(1-methyl-1H-indol-3-yl)-propionic acid]: the melting point was 156.7 to 157.2 °C.
In the case of `CCn1cc(CC(NC(=O)OCc2ccc(-c3ccccc3)cc2)C(=O)O)c2ccccc21` (stereo not shown) [Compound 147, 2-(biphenyl-4-ylmethoxycarbonylamino)-3-(1-ethyl-1Hindol-3-yl)-propionic acid] it was 136.8 to 138.5 °C; in that of `CC(C)n1cc(CC(NC(=O)OCc2ccc(-c3ccccc3)cc2)C(=O)O)c2ccccc21` (stereo not shown) [Compound 148, 2-(biphenyl-4-ylmethoxycarbonylamino)-3-(1-isopropyl-1H-indol-3-yl)-propionic acid], 143.1 to 144.8 °C; in that of `Cn1cc(C[C@@H](NC(=O)OCc2ccc(-c3ccccc3)cc2)C(=O)O)c2ccccc2c1=O` [Compound 149, (R)-2-(biphenyl-4-ylmethoxycarbonylamino)-3-(2-methyl-1-oxo-1,2-dihydro-isoquinolin-4-yl)-propionic acid], 215 to 217 °C.
Consider `O=C(N[C@H](Cc1nc2ccccc2[nH]1)C(=O)O)OCc1ccc(-c2ccccc2)cc1` [Compound 150, (R)-3-(1H-benzoimidazol-2-yl)-2-(biphenyl-4-ylmethoxycarbonylamino)-propionic acid], for which the melting point fell in the range of 243 to 245 °C.
Regarding `O=C(N[C@H](Cc1ccccc1)C(=O)O)OCc1ccc(COc2cccc3ncccc23)cc1` [Compound 152, (R)-3-phenyl-2-[4-(quinolin-5-yloxymethyl)-benzyloxycarbonylamino]-propionic acid], the melting point lay in the range of 189.4 to 189.8 °C.
`O=C(N[C@H](Cc1ccccc1)C(=O)O)OCc1ccc(Cn2ccc3ccccc32)cc1` [Compound 153, (R)-2-(4-indol-1-ylmethyl-benzyloxycarbonylamino)-3-phenyl-propionic acid] displayed a melting point of 122 to 125 °C.
The molecule `O=C(NC(Cc1ccccc1)C(=O)O)OCc1ccc(COc2ccc(Cl)cc2)cc1` (stereo not shown) [Compound 155, 2-[4-(4-chloro-phenoxymethyl)-benzyloxycarbonylamino]-3-phenyl-propionic acid] registered a melting point of 122 to 123.1 °C.
`O=C(N[C@H](Cc1ccc(F)cc1)C(=O)O)OCc1ccc2oc(-c3ccc(F)cc3)nc2c1` [Compound 157, (R)-3-(4-fluoro-phenyl)-2-[2-(4-fluoro-phenyl)-benzoxazol-5-ylmethoxycarbonylamino]-propionic acid]: the melting point lay in the range of 197.1 to 198.7 °C.
Molecule `O=C(N[C@H](Cc1ccccc1)C(=O)O)OCc1ccc2oc(-c3ccc(F)cc3)nc2c1` [Compound 158, (R)-2-[2-(4-fluoro-phenyl)-benzoxazol-5-ylmethoxycarbonylamino]-3-phenyl-propionic acid] showed a melting point of 208.2 to 208.5 °C.
For `N#Cc1cccc(-c2nc3cc(COC(=O)N[C@H](Cc4ccc(F)cc4)C(=O)O)ccc3o2)c1` [Compound 159, (R)-2-[2-(3-cyano-phenyl)-benzoxazol-5-ylmethoxycarbonylamino]-3-(4-fluoro-phenyl)-propionic acid], the melting point lay in the range of 208.5 to 209.2 °C.
The molecule `O=C(N[C@H](Cc1ccc(F)cc1)C(=O)O)OCc1ccc2oc(-c3cc(F)cc(F)c3)nc2c1` [Compound 160, (R)-2-[2-(3,5-difluoro-phenyl)-benzoxazol-5-ylmethoxycarbonylamino]-3-(4-fluoro-phenyl)-propionic acid] gave a melting point of 196.2 to 197.7 °C.
The result for `O=C(N[C@H](Cc1ccccc1)C(=O)O)OCc1ccc2oc(-c3cccc4[nH]ccc34)nc2c1` [Compound 161, (R)-2-[2-(1H-indol-4-yl)-benzoxazol-5-ylmethoxycarbonylamino]-3-phenyl-propionic acid] reads 187 to 189 °C; that for `O=C(N[C@H](Cc1ccccc1)C(=O)O)OCc1ccc2oc(-c3cc(F)cc(F)c3)nc2c1` [Compound 162, (R)-2-[2-(3,5-difluoro-phenyl)-benzoxazol-5-ylmethoxycarbonylamino]-3-phenyl-propionic acid], 193.8 to 195 °C; that for `O=C(NC(Cc1ccncc1)C(=O)O)OCc1cc2cc(-c3ccccc3)ccc2o1` (stereo not shown) [Compound 163, 2-(5-phenyl-benzofuran-2-ylmethoxycarbonylamino)-3-pyridin-4-yl-propionic acid], 219 to 220 °C.
As to `O=C(NC(Cc1cccnc1)C(=O)O)OCc1cc2cc(-c3ccccc3)ccc2o1` (stereo not shown) [Compound 164, 2-(5-Phenyl-benzofuran-2-ylmethoxycarbonylamino)-3-pyridin-3-yl-propionic acid], the melting point was in the range of 164 to 169 °C.
For the molecule `O=C(NC(Cc1cnccn1)C(=O)O)OCc1cc2cc(-c3ccccc3)ccc2o1` (stereo not shown) [Compound 165, 2-(5-phenyl-benzofuran-2-ylmethoxycarbonylamino)-3-pyrazin-2-yl-propionic acid], the melting point lay in the range of 144.9 to 146 °C.
The result for `O=C(NC(Cc1cccnn1)C(=O)O)OCc1cc2cc(-c3ccccc3)ccc2o1` (stereo not shown) [Compound 167, 2-(5-phenyl-benzofuran-2-ylmethoxycarbonylamino)-3-pyridazin-3-yl-propionic acid] reads 174.7 to 175 °C; that for `O=C(NC(Cc1ccccc1)C(=O)O)OCc1ccc(CCCc2ccccc2)cc1` (stereo not shown) [Compound 168, 3-Phenyl-2-[4-(3-phenyl-propyl)-benzyloxycarbonylamino]-propionic acid], 134.8 to 135.2 °C.
In the case of `Cn1cc(C[C@@H](NC(=O)OCc2ccc(COc3ccccc3)cc2)C(=O)O)c2ccccc21` [Compound 170, (R)-3-(1-methyl-1H-indol-3-yl)-2-(4-phenoxymethyl-benzyloxycarbonylamino)-propionic acid] it was 79.9 to 82.6 °C.
